# According to the NIST ThermoML archive (doi:10.1016/j.jct.2013.05.009):
# ± gives the expanded uncertainty stated by the source.
# Test: xn = mol fraction of the nth substance listed
# Details: 101 kPa, Liquid; for mass density: Vibrating tube method; for speed of sound: fixed-path interferometer
compound,measurement,setting,value
CCCCO [butan-1-ol] + Cc1ccccc1,mass density,"298.15 K, x2 = 0",805.71 ± 0.15 kg/m3
same,mass density,"298.15 K, x2 = 0.02621",807.5 ± 0.15 kg/m3
same,mass density,"298.15 K, x2 = 0.06979",810.42 ± 0.15 kg/m3
same,mass density,"298.15 K, x2 = 0.1334",814.51 ± 0.15 kg/m3
same,mass density,"298.15 K, x2 = 0.1909",818.08 ± 0.14 kg/m3
same,mass density,"298.15 K, x2 = 0.2606",822.26 ± 0.14 kg/m3
same,mass density,"298.15 K, x2 = 0.3391",826.8 ± 0.14 kg/m3
same,mass density,"298.15 K, x2 = 0.4066",830.59 ± 0.14 kg/m3
same,mass density,"298.15 K, x2 = 0.473",834.2 ± 0.14 kg/m3
same,mass density,"298.15 K, x2 = 0.5406",837.84 ± 0.14 kg/m3
same,mass density,"298.15 K, x2 = 0.6007",841.01 ± 0.14 kg/m3
same,mass density,"298.15 K, x2 = 0.6711",844.68 ± 0.14 kg/m3
same,mass density,"298.15 K, x2 = 0.7376",848.14 ± 0.14 kg/m3
same,mass density,"298.15 K, x2 = 0.7967",851.2 ± 0.14 kg/m3
same,mass density,"298.15 K, x2 = 0.8691",854.94 ± 0.14 kg/m3
same,mass density,"298.15 K, x2 = 0.9327",858.35 ± 0.13 kg/m3
same,mass density,"298.15 K, x2 = 0.9649",860.1 ± 0.13 kg/m3
same,speed of sound,"298.15 K, x2 = 0",1240 ± 1.2 m/s
same,speed of sound,"298.15 K, x2 = 0.02621",1241.1 ± 1.2 m/s
same,speed of sound,"298.15 K, x2 = 0.06979",1242.9 ± 1.2 m/s
same,speed of sound,"298.15 K, x2 = 0.1334",1245.4 ± 1.2 m/s
same,speed of sound,"298.15 K, x2 = 0.1909",1247.6 ± 1.2 m/s
same,speed of sound,"298.15 K, x2 = 0.2606",1250.1 ± 1.2 m/s
same,speed of sound,"298.15 K, x2 = 0.3391",1252.9 ± 1.2 m/s
same,speed of sound,"298.15 K, x2 = 0.4066",1255.4 ± 1.2 m/s
same,speed of sound,"298.15 K, x2 = 0.473",1258 ± 1.2 m/s
same,speed of sound,"298.15 K, x2 = 0.5406",1261 ± 1.2 m/s
same,speed of sound,"298.15 K, x2 = 0.6007",1263.9 ± 1.2 m/s
same,speed of sound,"298.15 K, x2 = 0.6711",1267.8 ± 1.2 m/s
same,speed of sound,"298.15 K, x2 = 0.7376",1272.3 ± 1.2 m/s
same,speed of sound,"298.15 K, x2 = 0.7967",1277 ± 1.2 m/s
same,speed of sound,"298.15 K, x2 = 0.8691",1284.3 ± 1.2 m/s
same,speed of sound,"298.15 K, x2 = 0.9327",1293.6 ± 1.2 m/s
same,speed of sound,"298.15 K, x2 = 0.9649",1299.9 ± 1.2 m/s
same,mass density,"308.15 K, x2 = 0",798.05 ± 0.15 kg/m3
same,mass density,"308.15 K, x2 = 0.02621",799.76 ± 0.15 kg/m3
same,mass density,"308.15 K, x2 = 0.06979",802.54 ± 0.15 kg/m3
same,mass density,"308.15 K, x2 = 0.1334",806.45 ± 0.15 kg/m3
same,mass density,"308.15 K, x2 = 0.1909",809.86 ± 0.15 kg/m3
same,mass density,"308.15 K, x2 = 0.2606",813.87 ± 0.15 kg/m3
same,mass density,"308.15 K, x2 = 0.3391",818.22 ± 0.14 kg/m3
same,mass density,"308.15 K, x2 = 0.4066",821.86 ± 0.14 kg/m3
same,mass density,"308.15 K, x2 = 0.473",825.36 ± 0.14 kg/m3
same,mass density,"308.15 K, x2 = 0.5406",828.87 ± 0.14 kg/m3
same,mass density,"308.15 K, x2 = 0.6007",831.96 ± 0.14 kg/m3
same,mass density,"308.15 K, x2 = 0.6711",835.54 ± 0.14 kg/m3
same,mass density,"308.15 K, x2 = 0.7376",838.93 ± 0.14 kg/m3
same,mass density,"308.15 K, x2 = 0.7967",841.92 ± 0.14 kg/m3
same,mass density,"308.15 K, x2 = 0.8691",845.61 ± 0.14 kg/m3
same,mass density,"308.15 K, x2 = 0.9327",848.98 ± 0.14 kg/m3
same,mass density,"308.15 K, x2 = 0.9649",850.75 ± 0.14 kg/m3
same,speed of sound,"308.15 K, x2 = 0",1206.6 ± 1.2 m/s
same,speed of sound,"308.15 K, x2 = 0.02621",1207.3 ± 1.2 m/s
same,speed of sound,"308.15 K, x2 = 0.06979",1208.6 ± 1.2 m/s
same,speed of sound,"308.15 K, x2 = 0.1334",1210.3 ± 1.2 m/s
same,speed of sound,"308.15 K, x2 = 0.1909",1211.8 ± 1.2 m/s
same,speed of sound,"308.15 K, x2 = 0.2606",1213.6 ± 1.2 m/s
same,speed of sound,"308.15 K, x2 = 0.3391",1215.6 ± 1.2 m/s
same,speed of sound,"308.15 K, x2 = 0.4066",1217.5 ± 1.2 m/s
same,speed of sound,"308.15 K, x2 = 0.473",1219.6 ± 1.2 m/s
same,speed of sound,"308.15 K, x2 = 0.5406",1222 ± 1.2 m/s
same,speed of sound,"308.15 K, x2 = 0.6007",1224.6 ± 1.2 m/s
same,speed of sound,"308.15 K, x2 = 0.6711",1228.2 ± 1.2 m/s
same,speed of sound,"308.15 K, x2 = 0.7376",1232.3 ± 1.2 m/s
same,speed of sound,"308.15 K, x2 = 0.7967",1236.8 ± 1.2 m/s
same,speed of sound,"308.15 K, x2 = 0.8691",1243.8 ± 1.2 m/s
same,speed of sound,"308.15 K, x2 = 0.9327",1252.7 ± 1.2 m/s
same,speed of sound,"308.15 K, x2 = 0.9649",1258.4 ± 1.2 m/s
same,mass density,"318.15 K, x2 = 0",790.36 ± 0.15 kg/m3
same,mass density,"318.15 K, x2 = 0.02621",791.98 ± 0.15 kg/m3
same,mass density,"318.15 K, x2 = 0.06979",794.62 ± 0.15 kg/m3
same,mass density,"318.15 K, x2 = 0.1334",798.34 ± 0.15 kg/m3
same,mass density,"318.15 K, x2 = 0.1909",801.59 ± 0.15 kg/m3
same,mass density,"318.15 K, x2 = 0.2606",805.42 ± 0.15 kg/m3
same,mass density,"318.15 K, x2 = 0.3391",809.59 ± 0.15 kg/m3
same,mass density,"318.15 K, x2 = 0.4066",813.1 ± 0.15 kg/m3
same,mass density,"318.15 K, x2 = 0.473",816.47 ± 0.14 kg/m3
same,mass density,"318.15 K, x2 = 0.5406",819.88 ± 0.14 kg/m3
same,mass density,"318.15 K, x2 = 0.6007",822.88 ± 0.14 kg/m3
same,mass density,"318.15 K, x2 = 0.6711",826.37 ± 0.14 kg/m3
same,mass density,"318.15 K, x2 = 0.7376",829.68 ± 0.14 kg/m3
same,mass density,"318.15 K, x2 = 0.7967",832.63 ± 0.14 kg/m3
same,mass density,"318.15 K, x2 = 0.8691",836.27 ± 0.14 kg/m3
same,mass density,"318.15 K, x2 = 0.9327",839.62 ± 0.14 kg/m3
same,mass density,"318.15 K, x2 = 0.9649",841.43 ± 0.14 kg/m3
same,speed of sound,"318.15 K, x2 = 0",1173.4 ± 1.2 m/s
same,speed of sound,"318.15 K, x2 = 0.02621",1173.8 ± 1.2 m/s
same,speed of sound,"318.15 K, x2 = 0.06979",1174.5 ± 1.2 m/s
same,speed of sound,"318.15 K, x2 = 0.1334",1175.4 ± 1.2 m/s
same,speed of sound,"318.15 K, x2 = 0.1909",1176.3 ± 1.2 m/s
same,speed of sound,"318.15 K, x2 = 0.2606",1177.4 ± 1.2 m/s
same,speed of sound,"318.15 K, x2 = 0.3391",1178.6 ± 1.2 m/s
same,speed of sound,"318.15 K, x2 = 0.4066",1180 ± 1.2 m/s
same,speed of sound,"318.15 K, x2 = 0.473",1181.6 ± 1.2 m/s
same,speed of sound,"318.15 K, x2 = 0.5406",1183.7 ± 1.2 m/s
same,speed of sound,"318.15 K, x2 = 0.6007",1185.9 ± 1.2 m/s
same,speed of sound,"318.15 K, x2 = 0.6711",1189.1 ± 1.2 m/s
same,speed of sound,"318.15 K, x2 = 0.7376",1192.8 ± 1.2 m/s
same,speed of sound,"318.15 K, x2 = 0.7967",1197.1 ± 1.2 m/s
same,speed of sound,"318.15 K, x2 = 0.8691",1203.8 ± 1.2 m/s
same,speed of sound,"318.15 K, x2 = 0.9327",1212.2 ± 1.2 m/s
same,speed of sound,"318.15 K, x2 = 0.9649",1217 ± 1.2 m/s
same,mass density,"328.15 K, x2 = 0",782.56 ± 0.15 kg/m3
same,mass density,"328.15 K, x2 = 0.02621",784.09 ± 0.15 kg/m3
same,mass density,"328.15 K, x2 = 0.06979",786.6 ± 0.15 kg/m3
same,mass density,"328.15 K, x2 = 0.1334",790.12 ± 0.15 kg/m3
same,mass density,"328.15 K, x2 = 0.1909",793.21 ± 0.15 kg/m3
same,mass density,"328.15 K, x2 = 0.2606",796.86 ± 0.15 kg/m3
same,mass density,"328.15 K, x2 = 0.3391",800.85 ± 0.15 kg/m3
same,mass density,"328.15 K, x2 = 0.4066",804.22 ± 0.15 kg/m3
same,mass density,"328.15 K, x2 = 0.473",807.48 ± 0.15 kg/m3
same,mass density,"328.15 K, x2 = 0.5406",810.78 ± 0.15 kg/m3
same,mass density,"328.15 K, x2 = 0.6007",813.7 ± 0.15 kg/m3
same,mass density,"328.15 K, x2 = 0.6711",817.12 ± 0.14 kg/m3
same,mass density,"328.15 K, x2 = 0.7376",820.37 ± 0.14 kg/m3
same,mass density,"328.15 K, x2 = 0.7967",823.27 ± 0.14 kg/m3
same,mass density,"328.15 K, x2 = 0.8691",826.88 ± 0.14 kg/m3
same,mass density,"328.15 K, x2 = 0.9327",830.24 ± 0.14 kg/m3
same,mass density,"328.15 K, x2 = 0.9649",832.09 ± 0.14 kg/m3
same,speed of sound,"328.15 K, x2 = 0",1140.4 ± 1.2 m/s
same,speed of sound,"328.15 K, x2 = 0.02621",1140.4 ± 1.2 m/s
same,speed of sound,"328.15 K, x2 = 0.06979",1140.6 ± 1.2 m/s
same,speed of sound,"328.15 K, x2 = 0.1334",1140.8 ± 1.2 m/s
same,speed of sound,"328.15 K, x2 = 0.1909",1141 ± 1.2 m/s
same,speed of sound,"328.15 K, x2 = 0.2606",1141.5 ± 1.2 m/s
same,speed of sound,"328.15 K, x2 = 0.3391",1142 ± 1.2 m/s
same,speed of sound,"328.15 K, x2 = 0.4066",1142.8 ± 1.2 m/s
same,speed of sound,"328.15 K, x2 = 0.473",1144.1 ± 1.2 m/s
same,speed of sound,"328.15 K, x2 = 0.5406",1145.7 ± 1.2 m/s
same,speed of sound,"328.15 K, x2 = 0.6007",1147.6 ± 1.2 m/s
same,speed of sound,"328.15 K, x2 = 0.6711",1150.5 ± 1.2 m/s
same,speed of sound,"328.15 K, x2 = 0.7376",1154 ± 1.2 m/s
same,speed of sound,"328.15 K, x2 = 0.7967",1158 ± 1.2 m/s
same,speed of sound,"328.15 K, x2 = 0.8691",1164.4 ± 1.2 m/s
same,speed of sound,"328.15 K, x2 = 0.9327",1171.9 ± 1.2 m/s
same,speed of sound,"328.15 K, x2 = 0.9649",1175.9 ± 1.2 m/s
